Reference: patent US20170050961A1, “IMIDAZO[1,2-A]PYRIDINES AS SOLUBLE GUANYLATE CYCLASE STIMULATORS FOR THE TREATMENT OF CARDIOVASCULAR DISEASES” (BAYER PHARMA AKTIENGESELLSCHAFT, priority 2014, published 2017)

Target: T1, recombinant guanylate cyclase reporter cell line (Rattus norvegicus, UniProt P19686+P20595)
T1 construct: expressed in transfected cells
T1 sequence (P19686 1-690): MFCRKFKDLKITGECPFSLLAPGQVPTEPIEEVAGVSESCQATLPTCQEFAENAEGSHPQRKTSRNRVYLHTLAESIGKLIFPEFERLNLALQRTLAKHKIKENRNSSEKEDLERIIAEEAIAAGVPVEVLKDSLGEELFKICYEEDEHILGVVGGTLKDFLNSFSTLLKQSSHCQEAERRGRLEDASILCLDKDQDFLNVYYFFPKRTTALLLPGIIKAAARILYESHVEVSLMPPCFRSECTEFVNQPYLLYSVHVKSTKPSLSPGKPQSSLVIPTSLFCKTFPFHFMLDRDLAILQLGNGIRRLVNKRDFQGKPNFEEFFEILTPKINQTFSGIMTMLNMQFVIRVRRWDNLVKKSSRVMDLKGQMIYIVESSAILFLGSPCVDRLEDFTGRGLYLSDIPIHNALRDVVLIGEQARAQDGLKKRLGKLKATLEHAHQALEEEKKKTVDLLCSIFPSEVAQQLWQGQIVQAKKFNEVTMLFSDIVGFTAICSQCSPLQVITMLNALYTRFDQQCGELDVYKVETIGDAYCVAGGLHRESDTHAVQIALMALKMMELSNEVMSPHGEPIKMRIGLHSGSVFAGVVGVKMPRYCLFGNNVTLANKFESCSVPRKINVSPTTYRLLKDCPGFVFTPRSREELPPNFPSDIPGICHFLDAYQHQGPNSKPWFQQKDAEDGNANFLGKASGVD
T1 sequence (P20595 1-619): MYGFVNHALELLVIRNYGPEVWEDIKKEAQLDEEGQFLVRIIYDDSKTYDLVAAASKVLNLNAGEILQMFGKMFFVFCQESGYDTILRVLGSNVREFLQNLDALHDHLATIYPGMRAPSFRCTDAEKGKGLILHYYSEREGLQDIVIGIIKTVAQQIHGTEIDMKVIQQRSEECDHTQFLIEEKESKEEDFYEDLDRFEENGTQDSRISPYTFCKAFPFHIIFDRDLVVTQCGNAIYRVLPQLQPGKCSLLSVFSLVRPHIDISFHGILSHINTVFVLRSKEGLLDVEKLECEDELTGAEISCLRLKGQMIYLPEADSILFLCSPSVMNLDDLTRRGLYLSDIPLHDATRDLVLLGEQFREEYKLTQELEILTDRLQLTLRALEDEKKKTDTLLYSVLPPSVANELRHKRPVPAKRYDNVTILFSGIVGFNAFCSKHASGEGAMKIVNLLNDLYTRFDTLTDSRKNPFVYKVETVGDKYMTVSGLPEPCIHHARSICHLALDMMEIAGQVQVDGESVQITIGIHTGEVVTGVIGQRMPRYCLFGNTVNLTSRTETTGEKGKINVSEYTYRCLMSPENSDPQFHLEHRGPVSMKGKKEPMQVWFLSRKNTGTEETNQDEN
Experiment: Effect on a recombinant guanylate cyclase reporter cell line
Format: cell-based
Details: MEC=minimum effective concentration; in some cases as mean values for individual determinations
Procedure: B-2. Effect on a Recombinant Guanylate Cyclase Reporter Cell Line
The cellular activity of the compounds of the invention is determined using a recombinant guanylate cyclase reporter cell line, as described in F. Wunder et al., Anal Biochem. 339, 104-112 (2005).
Representative MEC values (MEC=minimum effective concentration) for the compounds of the invention are shown in the table below (in some cases as mean values for individual determinations): […]

SMILES | MEC [µM]
CCC(C)(N)CNC(=O)c1c(C)nc2c(OCc3c(F)cccc3F)cc(-c3cccnc3)cn12 (racemic) [Example 1, rac-N-(2-Amino-2-methylbutyl)-8-[(2,6-difluorobenzyl)oxy]-2-methyl-6-(pyridin-3-yl)imidazo[1,2-a]pyridine-3-carboxamide] | 10
CCC(C)(N)CNC(=O)c1c(C)nc2c(OCc3c(F)cccc3F)cc(C3CC3)cn12.Cl (racemic) [Example 2, rac-N-(2-Amino-2-methylbutyl)-6-cyclopropyl-8-[(2,6-difluorobenzyl)oxy]-2-methylimidazo[1,2-a]pyridine-3-carboxamide hydrochloride] | 1.0
CCC(C)(N)CNC(=O)c1c(C)nc2c(OCc3c(F)cccc3F)cc(-n3cccn3)cn12.Cl (racemic) [Example 3, rac-N-(2-Amino-2-methylbutyl)-8-[(2,6-difluorobenzyl)oxy]-2-methyl-6-(1H-pyrazol-1-yl)imidazo[1,2-a]pyridine-3-carboxamide hydrochloride] | 3.0
CCC(C)(N)CNC(=O)c1c(C)nc2c(OCc3c(F)cccc3F)cc(COC)cn12.Cl (racemic) [Example 4, rac-N-(2-Amino-2-methylbutyl)-8-[(2,6-difluorobenzyl)oxy]-6-(methoxymethyl)-2-methylimidazo[1,2-a]pyridine-3-carboxamide hydrochloride] | 3.0
CCC(C)(N)CNC(=O)c1c(C)nc2c(OCc3c(F)cccc3F)cc(OC(F)F)cn12 (racemic) [Example 5, rac-N-(2-Amino-2-methylbutyl)-8-[(2,6-difluorobenzyl)oxy]-6-(difluoromethoxy)-2-methylimidazo[1,2-a]pyridine-3-carboxamide] | 3.0
CCC(C)(N)CNC(=O)c1c(C)nc2c(OCc3c(F)cccc3F)cc(-c3cnn(C)c3)cn12 (racemic) [Example 6, rac-N-(2-Amino-2-methylbutyl)-8-[(2,6-difluorobenzyl)oxy]-2-methyl-6-(1-methyl-1H-pyrazol-4-yl)imidazo[1,2-a]pyridine-3-carboxamide] | 10
CCC(C)(N)CNC(=O)c1c(C)nc2c(OCc3c(F)cccc3F)cc(-c3cnco3)cn12 (racemic) [Example 7, rac-N-(2-Amino-2-methylbutyl)-8-[(2,6-difluorobenzyl)oxy]-2-methyl-6-(1,3-oxazol-5-yl)imidazo[1,2-a]pyridine-3-carboxamide] | 1.0
CCC(C)(N)CNC(=O)c1c(COC)nc2c(OCc3c(F)cccc3F)cc(C)cn12.Cl (racemic) [Example 8, rac-N-(2-Amino-2-methylbutyl)-8-[(2,6-difluorobenzyl)oxy]-2-(methoxymethyl)-6-methylimidazo[1,2-a]pyridine-3-carboxamide hydrochloride] | 10
CCC(C)(N)CNC(=O)c1c(Cl)nc2c(OCc3c(F)cccc3F)cc(C)cn12 (racemic) [Example 20] | 0.07
CCCC(C)(N)CNC(=O)c1c(Cl)nc2c(OCc3c(F)cccc3F)cc(C)cn12 (racemic) [Example 23, rac-N-(2-Amino-2-methylpentyl)-2-chloro-8-[(2,6-difluorobenzyl)oxy]-6-methylmidazo[1,2-a]pyridine-3-carboxamide] | 0.1
Cc1cc(OCc2c(F)cccc2F)c2nc(C)c(C(=O)NCC(C)(N)CC[Si](C)(C)C)n2c1 (single isomer, unassigned; enantiomer a) [Example 13, ent-N-[2-Amino-2-methyl-4-(trimethylsilyl)butyl]-8-[(2,6-difluorobenzyl)oxy]-2,6-dimethylimidazo[1,2-a]pyridine-3-carboxamide (enantiomer A)] | 0.3
Cc1cc(OCc2c(F)cccc2F)c2nc(C)c(C(=O)NCC(C)(N)CCC[Si](C)(C)C)n2c1 (single isomer, unassigned; enantiomer a) [Example 15, ent-N-[2-Amino-2-methyl-5-(trimethylsilyl)pentyl]-8-[(2,6-difluorobenzyl)oxy]-2,6-dimethylimidazo[1,2-a]pyridine-3-carboxamide (enantiomer A)] | 0.3
CCC(C)(N)CNC(=O)c1c(Cl)nc2c(OCc3c(F)cccc3F)cc(C)cn12 (single isomer, unassigned; enantiomer a) [Example 21, ent-N-(2-Amino-2-methylbutyl)-2-chloro-8-[(2,6-difluorobenzyl)oxy]-6-methylimidazo[1,2-a]pyridine-3-carboxamide (enantiomer A)] | 0.03
CCCC(C)(N)CNC(=O)c1c(Cl)nc2c(OCc3c(F)cccc3F)cc(C)cn12 (single isomer, unassigned; enantiomer a) [Example 24, ent-N-(2-Amino-2-methylpentyl)-2-chloro-8-[(2,6-difluorobenzyl)oxy]-6-methylimidazo[1,2-a]pyridine-3-carboxamide (enantiomer A)] | 0.1
Cc1cc(OCc2ncccc2F)c2nc(C)c(C(=O)NCC(C)(N)CCC(F)(F)F)n2c1 (single isomer, unassigned; enantiomer b) [Example 9, ent-N-(2-Amino-5,5,5-trifluoro-2-methylpentyl)-8-[(3-fluoropyridin-2-yl)methoxy]-2,6-dimethylimidazo[1,2-a]pyridine-3-carboxamide (enantiomer B)] | 0.3
Cc1nc2c(OCc3ncccc3F)cc(Cl)cn2c1C(=O)NCC(C)(N)CCC(F)(F)F (single isomer, unassigned; enantiomer b) [Example 10, ent-N-(2-Amino-5,5,5-trifluoro-2-methylpentyl)-6-chloro-8-[(3-fluoropyridin-2-yl)methoxy]-2-methylimidazo[1,2-a]pyridine-3-carboxamide (enantiomer B)] | 0.3
Cc1nc2c(OCc3ncccc3F)cccn2c1C(=O)NCC(C)(N)CCC(F)(F)F (single isomer, unassigned; enantiomer b) [Example 11, ent-N-(2-Amino-5,5,5-trifluoro-2-methylpentyl)-8-[(3-fluoropyridin-2-yl)methoxy]-2-methylimidazo[1,2-a]pyridine-3-carboxamide (enantiomer B)] | 1.0
Cc1cc(OCc2c(F)cccc2F)c2nc(C)c(C(=O)NCC(C)(N)CC[Si](C)(C)C)n2c1 (single isomer, unassigned; enantiomer b) [Example 14, ent-N-[2-Amino-2-methyl-4-(trimethylsilyl)butyl]-8-[(2,6-difluorobenzyl)oxy]-2,6-dimethylimidazo[1,2-a]pyridine-3-carboxamide (enantiomer B)] | 0.2
Cc1cc(OCc2c(F)cccc2F)c2nc(C)c(C(=O)NCC(C)(N)CCC[Si](C)(C)C)n2c1 (single isomer, unassigned; enantiomer b) [Example 16, ent-N-[2-Amino-2-methyl-5-(trimethylsilyl)pentyl]-8-[(2,6-difluorobenzyl)oxy]-2,6-dimethylimidazo[1,2-a]pyridine-3-carboxamide (enantiomer B)] | 1.0
Cc1cc(OCc2c(F)cccc2F)c2nc(C3CC(F)(F)C3)c(C(=O)NCC(C)(N)CCC(F)(F)F)n2c1 (single isomer, unassigned; enantiomer b) [Example 17, ent-N-(2-Amino-5,5,5-trifluoro-2-methylpentyl)-8-[(2,6-difluorobenzyl)oxy]-2-(3,3-difluorocyclobutyl)-6-methylimidazo[1,2-a]pyridine-3-carboxamide (enantiomer B)] | 3.0
